Measured values from patent publication US7858295B2, “Methods for prolonging survival of platelets using UDP-galactose” (Velico Medical, Inc., priority 2002, dated 2010).

What was measured:
[1] = test system: THP-1 cells; experiment: In vitro phagocytic assay: ingestion of CM-Orange-labeled chilled or room temperature human platelets by THP-1 phagocytes (flow cytometry); assay type: cell-based; conditions: for % inhibition phagocytosis / inhibitory effect on chilled platelet phagocytosis (in words): chilled platelets; for inhibitory effect on chilled platelet phagocytosis (in words): various concentrations; for inhibitory effect on RT platelet phagocytosis (in words): room temperature platelets
Protocol: CR3 expression was monitored by flow cytometry using a PE-conjugated anti-human CD11b/Mac-1 mAb. Undifferentiated or differentiated THP-1 cells (2×10^6/ml) were plated onto 24-well plates and allowed to adhere for 45 minutes at 37° C. The adherent undifferentiated or differentiated macrophages were activated by the addition of 15 ng/ml PMA for 15 min. CM-range-labeled, chilled or room temperature platelets (10^7/well), previously subjected to different treatments were added to the undifferentiated or differentiated phagocytes in Ca^2+- and Mg^2+-containing HBSS and incubated for 30 min at 37° C. Following the incubation period, the phagocyte monolayer was washed with HBSS for 3 times, and adherent platelets were removed by treatment with 0.05% trypsin/0.53 mM EDTA in HBSS at 37° C. for 5 min followed by 5 mM EDTA at 4° C. to detach the macrophages for flow cytometric analysis of adhesion or ingestion of platelets (Brown et al., 2000). […] CM-Orange-labeled platelets incubated with macrophages were resolved from the phagocytes according to their forward and side scatter properties. The macrophages were gated, 10,000 events acquired for each sample, and data analyzed with CELLQuest software (Becton Dickenson).
To analyze the effects of monosaccharides on platelet phagocytosis, phagocytes (differentiated monocytic cell line THP-1) were incubated in monosaccharide solutions at various concentrations, and the chilled or room temperature platelets were added. Values in the Figures are means±SD of 3-5 experiments comparing percentages of orange-positive monocytes containing ingested platelets incubated with RT or chilled platelets).

[2] = test system: human platelets; experiment: FITC-lectin (WGA, S-WGA, RCA I) binding to chilled or room temperature platelets by flow cytometry; assay type: cell-based; conditions: alone
Protocol: We then investigated whether wheat germ agglutinin (WGA), a lectin with specificity towards the terminal sugar (GlcNAc), binds more effectively to chilled platelets than to room temperature platelets. Washed, chilled or room temperature platelets were incubated with 2 μg/ml of FITC coupled WGA or FITC coupled succinyl-WGA for 30 min at room temperature and analyzed by flow cytometry. FIGS. 9A and 9B show the dot plots after incubation with FITC-WGA of room temperature (RT) or chilled (Cold) human platelets.
To analyze whether removal of GlcNAc residues reduces the binding of WGA to the platelet surface, chilled and room temperature washed human platelets were treated with 100 U/ml β-Hex for 30 min at 37° C.

Question: How did the “% inhibition phagocytosis” value ([1]; phagocytes incubated with 100 mM monosaccharide) turn out when `O=C[C@H](O)[C@@H](O)[C@@H](O)[C@H](O)CO` [D-(+)-galactose] was run?
Answer: The value was “did not significantly inhibit”.

Question: Which results are given for `O=C[C@@H](O)[C@@H](O)[C@H](O)[C@H](O)CO` [D-(+)-mannose]?
Answer: inhibitory effect on chilled platelet phagocytosis (in words) [1]: no inhibitory effect; inhibitory effect on RT platelet phagocytosis (in words) [1]: no inhibitory effect

Question: `CC(=O)N[C@H]1C(O)O[C@H](CO)[C@@H](O)[C@@H]1O` (stereo partly drawn) [GlcNac, N-acetyl-D-glucosamine] was tested. Which “inhibitory effect on chilled platelet phagocytosis (in words)” value [1] did it give?
Answer: Its value is “significantly inhibited”.

Question: For `CO[C@H]1O[C@H](CO)[C@@H](O)[C@H](O)[C@H]1O` [Methyl-α-D-glucopyranoside], which “inhibitory effect on chilled platelet phagocytosis (in words)” value [1] is on record?
Answer: The value was “did not have an inhibitory effect”.

Question: Which results are given for `CO[C@H]1O[C@H](CO)[C@@H](O)[C@H](O)[C@@H]1O` [Methyl-α-D-mannopyranoside]?
Answer: inhibitory effect on chilled platelet phagocytosis (in words) [1]: no inhibitory effect; inhibitory effect on RT platelet phagocytosis (in words) [1]: no inhibitory effect

Question: With `COC1OC(CO)C(O)C(O)C1O` [Methyl-β-D-gludopyranoside] as the molecule, how does the “inhibitory effect on chilled platelet phagocytosis (in words)” value [1] read?
Answer: The value was “dose-dependent manner”.

Question: `CO[C@@H]1O[C@H](CO)[C@@H](O)[C@H](O)[C@@H]1O` [Methyl-β-D-mannopyranoside] was tested. Which “inhibitory effect on chilled platelet phagocytosis (in words)” value [1] did it give?
Answer: Its value is “no inhibitory effect”.

Question: What about the “inhibitory effect on RT platelet phagocytosis (in words)” value [1] of the same molecule?
Answer: The value was “no inhibitory effect”.

Question: `O=c1ccn([C@@H]2O[C@H](COP(=O)(O)OP(=O)(O)O)[C@@H](O)[C@H]2O)c(=O)[nH]1` [UDP] was tested. Which “effect on S-WGA or RCA I binding to chilled or room temperature human platelets” value [2] did it give?
Answer: Its value is “no effect”.

Question: `CC(=O)N[C@@H]1[C@@H](O)[C@H](O)[C@@H](CO)O[C@H]1O` [β-GlcNac] was tested. Which “% inhibition phagocytosis” value ([1]; 0.01 mM (10 μM) monosaccharide, listed as β-anomer of GlcNAc) did it give?
Answer: The value was 80%.

Question: And the “inhibitory effect on chilled platelet phagocytosis (in words)” value [1]?
Answer: The value was “strongly inhibited”.
